Results from BigSolDB 2.1.

C=CC(=O)NC(C)(C)C
Conditions	solubility (mole fraction)
in DMAc, 293.15 K	0.0814
in DMAc, 298.15 K	0.0897
in DMAc, 303.15 K	0.0979
in DMAc, 308.15 K	0.11
in DMAc, 313.15 K	0.127
in DMAc, 318.15 K	0.146
in DMAc, 323.15 K	0.172
in DMAc, 328.15 K	0.203
in DMAc, 333.15 K	0.236
in DMAc, 338.15 K	0.274
in DMAc, 343.15 K	0.317
in DMAc, 348.15 K	0.364
in DMAc, 353.15 K	0.43
in DMF, 288.15 K	0.0207
in DMF, 293.15 K	0.0237
in DMF, 298.15 K	0.0283
in DMF, 303.15 K	0.0333
in DMF, 308.15 K	0.0403
in DMF, 313.15 K	0.0463
in DMF, 318.15 K	0.0529
in DMF, 323.15 K	0.0599
in DMF, 328.15 K	0.0709
in DMF, 333.15 K	0.0833
in DMF, 338.15 K	0.0987
in DMF, 343.15 K	0.117
in DMF, 348.15 K	0.138
in DMF, 353.15 K	0.166
in dichloromethane, 279.15 K	0.00541
in dichloromethane, 283.15 K	0.0065
in dichloromethane, 285.15 K	0.0072
in dichloromethane, 287.15 K	0.00798
in dichloromethane, 289.15 K	0.00889
in dichloromethane, 291.15 K	0.00962
in dichloromethane, 293.15 K	0.0106
in dichloromethane, 296.15 K	0.0117
in dichloromethane, 298.15 K	0.0128
in dichloromethane, 301.15 K	0.0142
in dichloromethane, 304.15 K	0.016
in ethanol, 284.95 K	0.00136
in ethanol, 287.95 K	0.00152
in ethanol, 291.15 K	0.0017
in ethanol, 294.15 K	0.0021
in ethanol, 297.15 K	0.0024
in ethanol, 300.15 K	0.00283
in ethanol, 304.15 K	0.00344
in ethanol, 307.15 K	0.00392
in ethanol, 310.15 K	0.00463
in ethanol, 313.15 K	0.00522
in ethanol, 316.15 K	0.00598
in ethanol, 319.15 K	0.00677
in ethanol, 324.15 K	0.00864
in ethanol, 330.15 K	0.0113
in ethanol, 335.15 K	0.0142
in ethyl acetate, 287.15 K	0.015
in ethyl acetate, 290.15 K	0.0155
in ethyl acetate, 293.15 K	0.0166
in ethyl acetate, 296.15 K	0.0178
in ethyl acetate, 299.15 K	0.0188
in ethyl acetate, 302.15 K	0.0204
in ethyl acetate, 305.15 K	0.0225
in ethyl acetate, 310.15 K	0.0256
in ethyl acetate, 315.15 K	0.0289
in ethyl acetate, 320.15 K	0.0327
in ethyl acetate, 325.15 K	0.0363
in ethyl acetate, 330.15 K	0.0406
in ethyl acetate, 335.15 K	0.045
in ethyl acetate, 340.15 K	0.0506
in formamide, 284.15 K	0.00078
in formamide, 288.15 K	0.000929
in formamide, 294.15 K	0.00117
in formamide, 305.15 K	0.00199
in formamide, 308.15 K	0.00229
in formamide, 312.15 K	0.00277
in formamide, 316.15 K	0.00348
in formamide, 320.15 K	0.0043
in formamide, 324.15 K	0.00512
in formamide, 329.15 K	0.00639
in formamide, 334.15 K	0.00776
in formamide, 340.15 K	0.00994
in formamide, 345.15 K	0.0122
in formamide, 350.15 K	0.015
in water, 294.15 K	0.000895
in water, 298.15 K	0.000994
in water, 303.15 K	0.00111
in water, 308.15 K	0.00122
in water, 313.15 K	0.00136
in water, 318.15 K	0.00153
in water, 323.15 K	0.00172
in water, 328.15 K	0.00192
in water, 333.15 K	0.00215
in water, 338.15 K	0.0024
in water, 343.15 K	0.00267
in water, 348.15 K	0.00297
in water, 353.15 K	0.00338
